According to patent US20240342111A1, “ISOMER-SPECIFIC NEUROPROTECTIVE EFFECT OF NATURAL RESERVATROL” (priority 2021, published 2024):

Columns and labels:
[1] = test system: rat primary cortical neuron cultures; assay: NMDA excitotoxicity, viability by MTT assay; type: cell-based; conditions: then NMDA 500 μM for 5 minutes
Method: Cells were then exposed to excitotoxic NMDA (500 μM for 5 minutes) and viability was assessed using MTT assay after 24 hours. […] Rat cortical neurons (DIV 9) were treated with NMDA (50 μM for 5 minutes) and then with cis-RSV for 24 hours. Cells were then exposed to excitotoxic NMDA (500 μM for 5 minutes) and viability was assessed using MTT assay after 24 hours. […] Cell viability was assessed after 48 hours. […] Representative images (scale bar, 20 μm) for cortical neurons following neurite degeneration (MAP2—neurite marker, magenta and DAPI—nuclear marker, blue). […] Neurons were immunoassayed with anti-MAP2 antibody and quantified for neurite degeneration. The data represents mean±SEM for n=3 experiments with significance measured using Student's paired t-test.
Primary cortical neuron cultures were obtained from E18 Sprague Dawley rats' cortices, which were dissected in Hibernate E (BrainBits) and dissociated using the Neural Tissue Dissociation kit (Miltenyi Biotec). For this, minced cortices were incubated in a pre-warmed enzyme mix at 37° C. for 15 min; tissues were then triturated and strained using a 40 μm cell strainer. After washing and centrifugation, neurons were seeded in 50 μg/ml poly-D-Lysine (Sigma Aldrich) coated tissue culture plates. NBActive-1 medium (BrainBits) supplemented with 100 U/ml of Penicillin-Streptomycin (Life Technologies), 2 mM L-Glutamine (Life Technologies), and 1 X N21 supplement (R&D Systems) was used as culture medium. Control (AM4635), TyrRS (s443), PARP1 (s130207) siRNA for transfection were obtained from Invitrogen. […]
Rat cortical neurons (DIV 10-11) were exposed to different treatments after seeding 20,000 cells/well in 96-well plates. Cell viability was then assessed at 48 hours after the initial exposure to NMDA. […] The percentage of MTT reduced as measured by the difference between the absorbances at 570 nm read in a spectrophotometer (Spectramax 190R Molecular Devices, UK). The percentage of reduction of MTT was calculated comparing the difference of the absorbance at 570 of each sample. […]

[2] = test system: tau; assay: Immunostaining of phospho-tau (pSer404-tau); type: cell-based, rat; conditions: 25 μM, 16 hours
[3] = test system: PARP1; assay: Immunoblot for auto-PARylation of PARP1; type: cell-based, rat; conditions: 15 minutes
[4] = Spectral analysis (absorption spectrum) of cis- and trans-RSV conformation in solution; type: physicochemical; conditions: for peak absorption: lower concentrations (≤10 μM), range 250-400 nm
Method: Nature 519, 370-373, doi:10.1038/nature14028 (2015). […] Mol Nutr Food Res 63, e1800715, doi:10.1002/mnfr.201800715 (2019). […] Commercially available cis- and trans-RSV were dissolved in ethanol to generate the stock solutions. […] The dilutions were done in the dark and samples were protected from light. […] Low dose trans-RSV evokes a paradoxical shift in equilibrium towards the cis conformation in solution.
Each stock was diluted 1000× in DMSO to prepare different stocks to obtain the final working solutions and micromolar concentrations to obtain the absorption spectrum. The control solution was prepared using ethanol and DMSO (0.1% ethanol). Absorption was measured using Spectramax 300R at room temperature. Stock solutions were stored at −20° C., and the working solutions were prepared fresh and protected from light during the preparation.

Structure (SMILES): Oc1ccc(/C=C\c2cc(O)cc(O)c2)cc1 [cis-RSV, cis-resveratrol]
- neuronal survival under NMDA excitotoxicity ([1]; cis-RSV for 24 hours): protected against excitotoxicity in a dose-dependent manner
- phosphorylation level of tau (p-tau, pSer404) [2]: significantly downregulated the phosphorylation level of tau (p-tau)
- auto-PARylation of PARP1 ([3]; cis-RSV): stimulated the auto-PARylation of PARP1
- specific absorption peak [4]: 295 nm
- conformation in solution ([4]; cis-RSV, 5-50 μM): retains its conformation across the different doses
- peak absorption [4]: 295 nm

Structure (SMILES): Oc1ccc(/C=C/c2cc(O)cc(O)c2)cc1 [trans-RSV, trans-resveratrol]
- neuronal survival under NMDA excitotoxicity ([1]; higher dose (≥25 μM), 24 hours): exacerbated the N-Methyl-D-aspartate (NMDA)-mediated excitotoxicity
- neuronal survival under NMDA excitotoxicity ([1]; low dose (≤10 μM), 24 hours): evoked neuroprotective effects
- phosphorylation level of tau (p-tau, pSer404) [2]: significantly upregulated the level of p-tau
- auto-PARylation of PARP1 ([3]; higher dose ≥25 μM): downregulated the auto-PARylation of PARP1
- auto-PARylation of PARP1 ([3]; low dose 5 μM): stimulated the auto-PARylation of PARP1
- specific absorption peak [4]: 330 nm
- conformation in solution ([4]; concentrations ≤10 μM, in DMSO, protected from light): exists majorly in cis-RSV conformation
- conformation in solution ([4]; high dose (≥25 μM)): retains its trans conformation
- peak absorption [4]: 295 nm
